Experimental data reported in patent US8143262B2, “7-(3′,4′-Dialkoxyphenyl)[1,2,4]-triazolo[1,5-A]pyrimidine compounds, process for preparing thereof, and pharmaceutical composition for treating or preventing asthma, chronic obstructive pulmonary disease, arthritis, atopic dermatitis, tumor and degenerative brain diseases comprising the same” (Korea Research Institute of Chemical Technology, priority 2007, dated 2012).

Legend:
[1] = tested on: OVA-sensitized C57BL/6J mice; experiment: Airway hyper-responsiveness (Penh, whole body plethysmography) after methacholine in OVA-sensitized mice; assay type: in vivo, mouse; conditions: oral, 100 mg/kg; versus Roflumilast 100 mg/kg oral
Procedure: (§1) For animal test in vivo, 8-9 week old male C57BL/6J mice having body weight of 20-25 g were used as the test animal. For sensitization and challenge of airway and lung by ovalbumin (OVA), OVA mixed with Al(OH)3 was administered intraperitoneally to cause first sensitization, and second sensitization after 10 days from the first sensitization. After 6 days from the second sensitization, the animals were inhaled with 5% OVA via nebulizer for 3 days. Administration of medicine to the sensitized mice was carried out intraorally (po), three times one hour before every inhalation of OVA. To the control group, 0.5% CMC was administered.
The analysis of airway hyper-responsiveness (AHR) was carried out by using a whole body plethysmographer with a living animal.
After 48 hours from inhalation of OVA, the animal was inhaled with methacholine (Mch) by means of nebulizer. Responsiveness of airway due to Mch was evaluated by enhanced pause (Penh) value on capability of respiration through airway by means of whole body plethysmography, and compared with control medicine.

Human PDE-4d = target: T1, Human PDE-4d (Homo sapiens, UniProt Q08499); experiment: Inhibition of PDE-4 activity ([3H]cAMP hydrolysis, recombinant catalytic domain); assay type: biochemical; conditions: PDE4d 1 nM, cAMP 250 nM, 34° C., 45 minutes; read-out: IC50 against PDE-4 enzyme
T1 construct: The catalytic domain of PDE4d was cloned to pGEX4T3 (APBiotech) as GST fusion expression vector; GST (N); made in house; host or cells: E. coli BL21, DE3
T1 sequence (Q08499 386-715 limits assumed): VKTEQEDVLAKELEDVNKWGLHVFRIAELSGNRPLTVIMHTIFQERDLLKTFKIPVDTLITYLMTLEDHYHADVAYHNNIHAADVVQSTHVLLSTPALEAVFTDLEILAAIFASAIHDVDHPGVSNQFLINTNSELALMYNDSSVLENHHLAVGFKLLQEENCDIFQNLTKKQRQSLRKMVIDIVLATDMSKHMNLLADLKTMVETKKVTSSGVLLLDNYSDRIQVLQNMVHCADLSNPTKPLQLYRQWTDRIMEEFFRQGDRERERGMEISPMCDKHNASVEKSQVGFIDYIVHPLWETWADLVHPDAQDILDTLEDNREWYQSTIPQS
Procedure: Experiment of inhibiting PDE-4 activity was carried out by modifying the method of Loughney (Loughney et al., Journal of Biological Chemistry, 1996, 271(2), 796-806). Human PDE-4d prepared by means of gene recombination technology was used as PDE-4d
The catalytic domain of PDE4d was cloned to pGEX4T3 (APBiotech) as GST fusion expression vector, and then PDE4d gene was transformed to E. coli BL21, DE3. The strain was cultured at 37° C. in LB medium, and when OD reached about 0.3˜0.5, the temperature was lowered to 18° C. to induce expression of PDE4d by using 0.5 mM IPTG. After 15 hours from induction of the expression, cells with PDE4d expressed were recovered. The cells were suspended in a buffer solution (50 mM Tris, pH 8.0, 0.4M NaCl, 5 mM DTT), and crushed, centrifuged and purified. The columns used for the purification were Q-cephalose (APBiotech), Glutanione-cephalose (APBiotech) and Superdex200 gel permeation chromatography (APBiotech), in this order.
In order to measure the ability of individual compound to inhibit PDE4d activity, PDE4d 1 nM and cAMP (Sigma) 250 nM as substrate were added to the reaction buffer (50 mM Tris-HCl (pH 7.5) and 4 mM MgCl2), and individual compound obtained from Example 1 was added in a concentration from 1 to 50 μM thereto, and the mixture was reacted at 34° C. for 45 minutes. Total reaction solution was 60 μl. As to cAMP, a mixture with the ratio of [^3H]cAMP (Amersham, 1 μCi/μl) to cAMP (hot:cold, that is, isotope:non-isotope) being 1:200 was used. Then, the reaction was quenched by heating at 95° C. for 2 minutes. After cooling the mixture for 3 minutes, 1 mg/ml of Snake Venome (Sigma V0376) (30 μl) was added thereto. After reacting at 34° C. for 30 minutes, 30 μl of the reaction mixture was added to 250 μl of DOWEX 1×2-100 ion exchange resin (Aldrich, previously mixed with distilled water in a ratio of 1:1.6) by portions, and the mixture was vigorously stirred for 2 minutes. After settling the resin down, the supernatant (130 μl) was added to 2 ml of scintillation cocktail (Packard), and the mixture was thoroughly mixed, and then measured by using beta-counter. With respect to the enzyme activity of control group (experiment carried out without adding compound of Chemical Formula (1)), the concentration of each test compound to inhibit 50% of enzyme activity was determined as IC50.

[2] = tested on: OVA-sensitized C57BL/6J mice; experiment: Eosinophil peroxidase activity (EPO activity) in bronchoalveolar washing of OVA-sensitized mice; assay type: in vivo, mouse; conditions: oral, 5, 50, 100 and 300 mg/kg
Procedure: as §1
In order to observe cell activity and cell constitution in the washing solution of mouse bronchus alveolus, the animal was inhaled with OVA. After 62 hours, the mouse was anesthetized and the cervicothoracic region was open. A tube containing 0.8 ml of PBS was inserted to the bronchus, and PBS was injected. After massaging the chest for about 30 seconds, cell suspension was obtained from the lung. The cells obtained were centrifuged with 400×g. […] For the measurement of EPO activity, the cell suspension ([…]) was reacted with 0.1 mM OPD, 0.05 M Tris-HCl (pH 8.0), Triton X-100 and 1 mM H2 O2, and then absorbance at 492 nm was measured.

ferrets = experiment: Test of side-effect related to emesis in ferrets; assay type: in vivo; conditions: ferret, 7 mg/kg
Procedure: Male ferrets having the body weight of about 1.5˜2 kg, purchased from Marshal, were classified into the groups: control, yohimbine, #102-500 mg/kg and #102-1000 mg/kg treated groups. For three animals in each group, the medicine dissolved in 0.5% CMC at a concentration of 500 and 1000 mg/kg was orally administered. During 3 hours after then, the number of vomiting for each animal, and the number of animals showing salivation and diarrhea were measured by visual observation.

PDE-4 = conditions: background art; read-out: IC50 of inhibiting PDE-4; cited from earlier work

IC50 (Human PDE-4d) [nM]	SMILES	further results
74	[O-][n+]1cccc(-c2nc3nccc(-c4ccc(OC(F)F)c(OCC5CC5)c4)n3n2)c1 [Compound 102, 3-[7-{3-(cyclopropylmethoxy)-4-(difluoromethoxy)phenyl}-[1,2,4]triazolo[1,5-a]pyrimidine-2-yl]-pyridine-N-oxide]	effect of treating asthma: degree of airway contraction by enhanced pause (Penh) value [1]: far superior effect of treating asthma to the control compound, Roflumilast; eosinophil peroxidase activity (EPO activity) [2]: excellent effect
–	COC(=O)[C@@H]1[C@H]2C[C@H]3c4[nH]c5ccccc5c4CCN3C[C@@H]2CC[C@@H]1O [yohimbine]	animals showing salivation and diarrhea (ferrets): 66%; vomiting symptoms (number of vomiting per animal) (ferrets; observed in all ferrets used): average twice
50	FC(F)Oc1ccc(-c2ccnc3nc(-c4ccc(I)cc4)nn23)cc1OCC1CC1 [Compound 127, 7-[3-(Cyclopropylmethoxy)-4-(difluoromethoxy)phenyl]-2-(4-iodophenyl)-[1,2,4]triazolo[1,5-a]pyrimidine]	–
33	FC(F)Oc1ccc(-c2ccnc3nc(-c4cccnc4)nn23)cc1OCC1CC1 [Compound 112, 3-[7-{3-(cyclopropylmethoxy)-4-(difluoromethoxy)phenyl}-[1,2,4]triazolo[1,5-a]pyrimidin-2-yl]-pyridinium chloride]	–
35	CSc1ccc(-c2nc3nccc(-c4ccc(OC(F)F)c(OCC5CC5)c4)n3n2)cc1 [Compound 140, 7-[3-(Cyclopropylmethoxy)-4-(difluoromethoxy)phenyl]-2-(4-methylthiophenyl)-[1,2,4]triazolo[1,5-a]pyrimidine]	–
30	O=C(O)c1ccc(-c2nc3nccc(-c4ccc(OC(F)F)c(OCC5CC5)c4)n3n2)cc1 [Compound 118, 4-[7-{3-(cyclopropylmethoxy)-4-(difluoromethoxy)phenyl}-[1,2,4]triazolo[1,5-a]pyrimidin-2-yl]benzoic acid]	–
30	Cc1cccc(-c2nc3nccc(-c4ccc(OC(F)F)c(OCC5CC5)c4)n3n2)c1 [Compound 132, 7-[3-(Cyclopropylmethoxy)-4-(difluromethoxy)phenyl]-2-m-tolyl-[1,2,4]triazolo[1,5-a]pyrimidine]	–
–	O=C(Nc1c(Cl)cncc1Cl)c1ccc(OC(F)F)c(OCC2CC2)c1 [Roflumilast]	IC50 (PDE-4): 0.8 nM
160	[O-][n+]1ccc(-c2nc3nccc(-c4ccc(OC(F)F)c(OCC5CC5)c4)n3n2)cc1 [Compound 110, 4-[7-{3-(Cyclopropylmethoxy)-4-(difluoromethoxy)phenyl}-[1,2,4]triazolo[1,5-a]pyrimidine-2-yl]-pyridine-N-oxide]	–
52	FC(F)Oc1ccc(-c2ccnc3nc(-c4cccnc4Cl)nn23)cc1OCC1CC1 [Compound 105, 2-(2-chloropyridin-3-yl)-7-[3-(cyclopropylmethoxy)-4-(difluoromethoxy)phenyl]-[1,2,4]triazolo[1,5-a]pyrimidine]	–
160	FC(F)Oc1ccc(-c2ccnc3nc(-c4ccc(Cl)nc4)nn23)cc1OCC1CC1 [Compound 104, 2-(6-chloropyridin-3-yl)-7-[3-(cyclopropylmethoxy)-4-(difluoromethoxy)phenyl]-[1,2,4]triazolo[1,5-a]pyrimidine]	–
79	FC(F)Oc1ccc(-c2ccnc3nc(-c4ccncc4)nn23)cc1OCC1CC1 [Compound 103, 7-[3-(Cyclopropylmethoxy)-4-(difluoromethoxy)phenyl]-2-pyridin-4-yl-[1,2,4]triazolo[1,5-a]pyrimidine]	–
180	COC(=O)c1ccc(-c2nc3nccc(-c4ccc(OC(F)F)c(OCC5CC5)c4)n3n2)cn1 [Compound 138, 5-[7-{3-(cyclopropylmethoxy)-4-(difluoromethoxy)phenyl}-[1,2,4]triazolo[1,5-a]pyrimidin-2-yl]pyridine-2-carboxylic acid methyl ester]	–
170	N#Cc1ccc(-c2nc3nccc(-c4ccc(OC(F)F)c(OCC5CC5)c4)n3n2)cn1 [Compound 123, 2-(2-cyano-pyridin-5-yl)-7-[3-(cyclopropylmethoxy)-4-(difluoromethoxy)phenyl]-[1,2,4]triazolo[1,5-a]pyrimidine]	–

SMILES	IC50 (Human PDE-4d) [nM]	further results
COc1ccc(-c2ccnc3nc(-c4cccnc4)nn23)cc1OC1CCCC1 [Compound 135, 7-[3-(Cyclopentoxy)-4-methoxyphenyl]-2-(3-pyridyl)-[1,2,4]triazolo[1,5-a]pyrimidine]	50	–
